Data set [1] can be described thus: Aqueous (FaSSIF) solubility. It counts as physicochemical. As to conditions: fasted state simulated intestinal fluid (FaSSIF); for solubility at 16 h: kinetic from dmso stock, pH 6.5, three replicates, read-out: Solubility (1); for solubility: pH 6.8, two replicates, read-out: Solubility (2). The protocol: Solubility was measured by equilibration of the compound in fasted state simulated intestinal fluid (FaSSIF) and quantified by high-performance liquid chromatography (HPLC).
Aqueous solubility was measured by equilibration of compounds with fasted state simulated intestinal fluid (FaSSIF) and quantified spectrophotometrically.
FaSSIF was prepared as described below:
Preparation of blank FaSSIF: 0.21 g of sodium hydroxide (NaOH) pellets, 1.97 g of dihydrogen sodium phosphate (NaH2PO4.2H2O) and 3.09 g of sodium chloride (NaCl) were dissolved in 400 mL of deionised water. […]
Preparation of FaSSIF: 0.056 g of SIF Powder (containing sodium taurocholate and lecithin) (Phares AG) was dissolved in 25 mL of blank FaSSIF and stirred until the powder was completely dissolved. The solution was allowed to stand for 2 hours during which it became opalescent; it was used within 24 hours. The final solution composition was characterised as follows: • Sodium taurocholate: 3 mM • Lecithin: 0.75 mM • Osmolarity: 270±10 mOsmol • pH: 6.5
The optical density was measured at the end of the incubation period for test compounds and a reference used to determine solubility. In brief, two samples were prepared for each determination: a reference sample consisting of a stock solution of test compound in DMSO diluted in system solution (a phosphate free, low absorption buffer) and propanol; and a test sample (prepared in triplicate) consisting of 0.5 mL FaSSIF spiked with test compound at 0.2 mM. Each sample was incubated at room temperature for 16 hours with constant shaking at 250 rpm. At the end of the incubation period, 0.3 mL of each sample was filtered through a pION filter plate (PION, Woburn Mass.), diluted 1:1 with propanol and scanned using UV spectrophotometry at λmax ([…]) using a Spectra Max Plus—Version 2.1000 (Molecular Devices, Sunnyvale, Calif.), with μSOL Explorer solubility determination software (pION, Woburn, Mass.).
FaSSIF solubility was calculated using the following formula:
[formula] wherein: • “OD” is the optical density; • “Cr” is the concentration of the reference (33.4 μM); and • “molecular weight” is for the test compound (e.g., 381.44 for ABD735).

Data set [2] concerns GADD45a-GFP reporter in TK6 human lymphoblastoid cell line. In words: GreenScreen HC genotoxicity (GADD45a-GFP reporter). It counts as cell-based. From the text: GreenScreen HC is a mammalian cell-based assay for measuring the genotoxicity and cytotoxicity of chemical compounds and mixtures.
The term genotoxic is used to describe substances that are capable of causing damage to genetic material (DNA) within a cell, which may ultimately have mutagenic, carcinogenic or teratogenic effects in humans.
The GreenScreen assay reports genotoxic stress as an increase in fluorescence from a genetically modified derivative of the p53-competent TK6 human lymphoblastoid cell line. In the modified cells, regulatory DNA sequences which promote the transcription of the GADD45a gene control the expression of Green Fluorescent Protein (GFP). GADD45a has a central role in genomic integrity, and genotoxic stress induces its transcription. Exposure to a genotoxic compound therefore increases the expression of GFP, which is observed as an increase in fluorescence and which is monitored by fluorescent detection using a plate reader or flow cytometer. In the GreenScreen HC assay fluorescence is normalised to the optical absorbance measurement to correct for variation in cell yield caused by loss of cell viability or cytotoxicity. The statistically defined threshold for a positive result in the GreenScreen HC assay is 1.5, i.e., 50% induction over and above the baseline for the vehicle-treated control.
A dilution series of each test compound is generated in parallel in a 96-well, black microplate with an optically clear base. A standard genotoxic compound (methyl methanesulfonate, MMS) is added as an intra-plate quality control check. The plates are analysed at 24 hour and 48 hour time points using a microplate reader, which provides measurements of light absorbance and fluorescence for cells and solutions in the microplates wells.
In addition to measurements of cell viability and genotoxicity described above, the GreenScreen assay incorporates an assessment of the effects of metabolic activation in the assay, the “GreenScreen HC S9 assay”. To accomplish this, the cells are incubated both in the presence of and absence of the post-mitochondrial supernatant liver extract (known as “S9”). S9 is routinely used in genetic toxicology to supplement the test cells with mammalian phase I metabolism. To assess metabolic activation, compounds are incubated with the TK6 strain in the presence of 1% v/v S9 fraction mix for 3 hours with a subsequent 45 hour recovery time. After the recovery period, the GFP fluorescence signal and cell viability (assessed by propidium iodide uptake) are measured using a flow cytometer. Cyclophosphamide, a commonly used control in genotoxicity studies utilising metabolic activation, is used as the positive control in the assay. In the GreenScreen HC S9 assay, genotoxicity is evaluated by induction in GFP expression quantified using the mean sample fluorescence and cytotoxicity using the propidium iodide uptake assay described above. The statistically defined threshold for a positive genotoxicity result is 1.3, i.e. 30% induction over and above the baseline for the vehicle-treated control and the result is reported as positive or negative. Cytotoxic compounds are those that show an observed decrease in relative population survival below a significance threshold set at 90% compared to vehicle-treated control, at one or more test concentrations.
Stably transfected reporter cell lines were derived from the p53-competent human lymphoblastoid TK6 cell line. The reporter cell line carries an episomally replicating plasmid bearing the upstream promoter region and other regulatory sequences of the human GADD45a gene linked to a human optimised Green Fluorescent Protein (GFP) gene. The control cell line carries an identical plasmid except for the removal of 4 base pairs at the start of the EGFP gene, such that GFP is not produced. […]

Setting [3] is: GreenScreen HC, positive or negative.

Converted amounts (≈) assume the structure as drawn.

The term solubility denotes the concentration that dissolves in the medium under given conditions. For `Cc1cc(S(=O)(=O)NC2CCC(C)(O)CC2)ccc1-c1ccc(F)cc1F` (single isomer, unassigned) [REF001, reference compound], the solubility at 16 h in data set [1] is 50 µg/mL (≈ 126 µM). For the same molecule, in data set [2] (setting [3]), the Genotoxicity entry is reported as “Positive”.
In the case of `Cc1cc(S(=O)(=O)N[C@H]2CC[C@H](O)CC2)ccc1-c1ccc(F)cc1F` [ABD735], in data set [1], the solubility at 16 h is 20 µg/mL (≈ 52.4 µM). In addition, in data set [2] (setting [3]), the Genotoxicity entry is given as “Negative”.
For `C[C@]1(O)CC[C@H](NS(=O)(=O)c2ccc(-c3ncc(F)cc3F)cc2)CC1` [HMC-N-02-A, 4-(3,5-Difluoropyridin-2-yl)-N-((1r,4r)-4-hydroxy-4-methylcyclohexyl)benzenesulfonamide], in that order: 20 µg/mL (≈ 52.3 µM) and “Negative”.
`C[C@]1(O)CC[C@H](NS(=O)(=O)c2ccc(-c3ccc(Cl)cc3C#N)cc2)CC1` [HMC-C-01-A, 4′-Chloro-2′-cyano-N-((1r,4r)-4-hydroxy-4-methylcyclohexyl)biphenyl-4-sulfonamide]: the solubility at 16 h in data set [1] was 60 µg/mL (≈ 148 µM). Besides, in data set [2] (setting [3]), the Genotoxicity result is on record as “Negative”.
Consider `C[C@]1(O)CC[C@@H](NS(=O)(=O)c2ccc(-c3ccc(F)cc3C(F)(F)F)cc2)CC1` [HMC-C-02-B, 4′-Fluoro-N-((1s,4s)-4-hydroxy-4-methylcyclohexyl)-2′-(trifluoromethyl)-[1,1′-biphenyl]-4-sulfonamide], for which the solubility in data set [1] is 70 µg/mL (≈ 162 µM).
In the case of `C[C@]1(O)CC[C@H](NS(=O)(=O)c2ccc(-c3ncc(Cl)cc3Cl)cc2)CC1` [HMC-N-03-A, 4-(3,5-Dichloropyridin-2-yl)-N-((1r,4r)-4-hydroxy-4-methylcyclohexyl)benzenesulfonamide], in data set [1], the solubility at 16 h was above 80 µg/mL. Also, the Genotoxicity result in data set [2] (setting [3]) was “Negative”.
As to `C[C@]1(O)CC[C@@H](NS(=O)(=O)c2ccc(-c3ncc(F)cc3F)c(F)c2)CC1` [HMC-N-01-B, 4-(3,5-Difluoropyridin-2-yl)-3-fluoro-N-((1s,4s)-4-hydroxy-4-methylcyclohexyl)benzenesulfonamide], the solubility in data set [1] was 120 µg/mL (≈ 300 µM). In addition, the Genotoxicity result in data set [2] (setting [3]) is on record as “Negative”.
As for `O=S(=O)(N[C@H]1CC[C@H](O)CC1)c1ccc(-c2ncc(Cl)cc2Cl)cc1` [ABD836, reference compound], the solubility at 16 h in data set [1] is 30 µg/mL (≈ 74.8 µM). For the same molecule, in data set [2] (setting [3]), the Genotoxicity entry is “Positive”.
As for `C[C@]1(O)CC[C@H](NS(=O)(=O)c2ccc(-c3ccc(F)cc3F)cc2)CC1` [ABD900, reference compound], in data set [1], the solubility is 120 µg/mL (≈ 315 µM). Besides, the Genotoxicity result in data set [2] (setting [3]) is listed as “Negative”.
For the molecule `C[C@]1(O)CC[C@@H](NS(=O)(=O)c2ccc(-c3ccc(F)cc3F)cc2)CC1` [ABD899, reference compound], the solubility at 16 h in data set [1] is 60 µg/mL (≈ 157 µM). The solubility in data set [1] is 130 µg/mL (≈ 341 µM). Further, the Genotoxicity entry was “Positive” in data set [2] (lab scale batch, 1.3 mM to 0.3 pM) and “Negative” in data set [2] (mid scale batch, 164 μM to 0.003 μM).
For the molecule `C[C@]1(O)CC[C@H](NS(=O)(=O)c2ccc(-c3ccc(F)cc3C(F)(F)F)cc2)CC1` [HMC-C-02-A, 4′-Fluoro-N-((1r,4r)-4-hydroxy-4-methylcyclohexyl)-2′-(trifluoromethyl)biphenyl-4-sulfonamide], in data set [1], the solubility at 16 h was 40 µg/mL (≈ 92.7 µM). Moreover, in data set [2] (setting [3]), the Genotoxicity result is reported as “Negative”.
For `C[C@]1(O)CC[C@@H](NS(=O)(=O)c2ccc(-c3c(F)cc(F)cc3F)cc2)CC1` [HMC-C-03-B, 2′,4′,6′-Trifluoro-N-((1s,4s)-4-hydroxy-4-methylcyclohexyl)-[1,1′-biphenyl]-4-sulfonamide], the solubility in data set [1] was 150 µg/mL (≈ 376 µM). The Genotoxicity result in data set [2] (setting [3]) is reported as “Positive”.
Regarding `C[C@]1(O)CC[C@@H](NS(=O)(=O)c2ccc(-c3ncc(F)cc3F)cc2)CC1` [HMC-N-02-B, 4-(3,5-Difluoropyridin-2-yl)-N-((1s,4s)-4-hydroxy-4-methylcyclohexyl)benzenesulfonamide], the solubility in data set [1] is 120 µg/mL (≈ 314 µM). Moreover, the Genotoxicity result in data set [2] (setting [3]) is “Negative”.
As to `C[C@]1(O)CC[C@H](NS(=O)(=O)c2ccc(-c3c(F)cc(F)cc3F)cc2)CC1` [HMC-C-03-A, 2′,4′,6′-Trifluoro-N-((1r,4r)-4-hydroxy-4-methylcyclohexyl)biphenyl-4-sulfonamide], the solubility at 16 h in data set [1] is 30 µg/mL (≈ 75.1 µM). Besides, in data set [2] (setting [3]), the Genotoxicity result is “Negative”.
With `C[C@]1(O)CC[C@H](NS(=O)(=O)c2ccc(-c3ncc(F)cc3F)c(F)c2)CC1` [HMC-N-01-A, 4-(3,5-Difluoropyridin-2-yl)-3-fluoro-N-((1r,4r)-4-hydroxy-4-methylcyclohexyl)benzenesulfonamide], the solubility at 16 h in data set [1] was 30 µg/mL (≈ 74.9 µM). The Genotoxicity entry in data set [2] (setting [3]) is “Negative”.
In the case of `C[C@]1(O)CC[C@@H](NS(=O)(=O)c2ccc(-c3ccc(F)cc3F)c(F)c2)CC1` [HMC-C-04-B, 2,2′,4′-Trifluoro-N-((1s,4s)-4-hydroxy-4-methylcyclohexyl)-[1,1′-biphenyl]-4-sulfonamide], the solubility in data set [1] is 130 µg/mL (≈ 325 µM).
On to `C[C@]1(O)CC[C@@H](NS(=O)(=O)c2ccc(-c3ccc(Cl)cc3C#N)cc2)CC1` [HMC-C-01-B, 4′-Chloro-2′-cyano-N-((1s,4s)-4-hydroxy-4-methylcyclohexyl)-[1,1′-biphenyl]-4-sulfonamide], for which the solubility in data set [1] was 80 µg/mL (≈ 198 µM). Moreover, in data set [2] (setting [3]), the Genotoxicity result is reported as “Negative”.
On to `C[C@]1(O)CC[C@H](NS(=O)(=O)c2ccc(-c3ncc(Cl)cc3Cl)c(F)c2)CC1` [HMC-N-04-A, 4-(3,5-Dichloropyridin-2-yl)-3-fluoro-N-((1r,4r)-4-hydroxy-4-methylcyclohexyl)benzenesulfonamide], for which the solubility at 16 h in data set [1] was 60 µg/mL (≈ 138 µM). In data set [2] (setting [3]), the Genotoxicity result was “Negative”.
Take `C[C@]1(O)CC[C@H](NS(=O)(=O)c2ccc(-c3ccc(F)cc3F)c(F)c2)CC1` [HMC-C-04-A, 2,2′,4′-Trifluoro-N-((1r,4r)-4-hydroxy-4-methylcyclohexyl)-[1,1′-biphenyl]-4-sulfonamide]: in data set [1], the solubility is 80 µg/mL (≈ 200 µM).
The same measure, in the same setting: as for `C[C@]1(O)CC[C@@H](NS(=O)(=O)c2ccc(-c3ncc(Cl)cc3Cl)cc2)CC1` [HMC-N-03-B, 4-(3,5-Dichloropyridin-2-yl)-N-((1s,4s)-4-hydroxy-4-methylcyclohexyl)benzenesulfonamide], the figure is 100 µg/mL (≈ 241 µM).

Values taken from patent publication US9624167B2, “N-(4-hydroxy-4-methyl-cyclohexyl)-4-phenyl-benzenesulfonamides and N-(4-hydroxy-4-methyl-cyclohexyl)-4-(2-pyridyl)benzenesulfonamides and their therapeutic use” (PIMCO 2664 LIMITED, priority 2013, dated 2017).
